Experimental findings from ChEMBL document CHEMBL1201861, “Genomics of Drug Sensitity in Cancer screening data, Wellcome Trust Sanger Institute” are described below.

Holding throughout (format): functional, cell-based
In one assay the test system is CRO-AP2. The experiment in a line: SANGER: Inhibition of human CRO-AP2 cell growth in a cell viability assay.
In the next assay the test system is ECC12. The assay can be described thus: cells. The settings on record: Homo sapiens.
In a further assay the test system is NCI-H128. The assay can be described thus: SANGER: Inhibition of human NCI-H128 cell growth in a cell viability assay. The settings on record: Homo sapiens, NCI-H128.
The next assay relates to NCI-H2107. The assay can be described thus: SANGER: Inhibition of human NCI-H2107 cell growth in a cell viability assay.
For the next assay, the system named is NCI-H2291. The assay can be described thus: cells. The following applies: Homo sapiens.
Another assay relates to ZR-75-30. The experiment in a line: cells. The following applies: Homo sapiens.
The subject of a further assay is CFPAC-1. The assay can be described thus: cells. The following applies: Homo sapiens.
In the next assay the test system is NCI-H1048. The experiment in a line: cells. The following applies: Homo sapiens.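 Also: growth inhibition of human NCI-H1048 cells, read out with a cell viability assay.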
A further assay deals with SW 1116. The experiment in a line: cells. The following applies: Homo sapiens.
The test system of a further assay is EPLC-272H. The experiment in a line: cells. The settings on record: Homo sapiens.
The next assay relates to KNS-62. The experiment in a line: cells. The settings on record: Homo sapiens.
The test system of another assay is D-566MG. The assay can be described thus: cells. The following applies: Homo sapiens.
The next assay has as its system D-423MG. The assay can be described thus: cells. The following applies: Homo sapiens.
For another assay, the system named is NBsusSR. The assay can be described thus: cells. The settings on record: Homo sapiens.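 Also: growth inhibition of the human cell line, read out with a cell viability assay.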
Another assay concerns NCI-H1666. The experiment in a line: cells. The following applies: Homo sapiens.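 Also: growth inhibition of the cell line, read out with a cell viability assay.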
A further assay deals with A549. The assay can be described thus: cells. The settings on record: Homo sapiens.
The next assay deals with BALL-1. The experiment in a line: cells. The settings on record: Homo sapiens.
In a further assay the test system is NCI-H2029. The assay can be described thus: cells. The settings on record: Homo sapiens.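 Also: Read-out is a viability assay on the cultured cells, and IC50 is the concentration that suppresses cell growth.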
The next assay has as its system YH-13. The experiment in a line: cells. The settings on record: Homo sapiens.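 Also: cell viability readout of growth suppression in the human YH-13 cell line.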
Another assay concerns RH-18. The experiment in a line: cells. The settings on record: Homo sapiens, Rh18.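 Also: growth inhibition of human RH-18 cells, read out with a cell viability assay.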
The next assay concerns NCI-H1975. The experiment in a line: cells. The settings on record: Homo sapiens.
In a further assay the test system is Caov-3 cell line. The assay can be described thus: cells. The settings on record: Homo sapiens.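 Also: cell growth inhibition read out by a viability assay.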
A further assay relates to MES-SA. The assay can be described thus: cells. The settings on record: Homo sapiens.
For the next assay, the system named is MFE-296. The assay can be described thus: SANGER: Inhibition of human MFE-296 cell growth in a cell viability assay.
The test system of the next assay is SK-CO-1. The experiment in a line: cells. The settings on record: Homo sapiens.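 Also: growth inhibition of SK-CO-1 cells, determined by a viability readout.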
The next assay has as its system SNU-475. The experiment in a line: cells. The settings on record: Homo sapiens.
For the next assay, the system named is CCF-STTG1. The assay can be described thus: cells. The settings on record: Homo sapiens.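 Also: growth inhibition of human CCF-STTG1 cells, determined with a cell viability read-out.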
The next assay concerns SNG-M. The assay can be described thus: cells. The settings on record: Homo sapiens.
The test system of a further assay is EW-7. The assay can be described thus: SANGER: Inhibition of human EW-7 cell growth in a cell viability assay.
The next assay concerns DV-90. The experiment in a line: cells. The following applies: Homo sapiens.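 Also: Read-out is a viability assay, with IC50 reflecting the drop in DV-90 cell growth.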
In a further assay the test system is COLO 205. The assay can be described thus: cells. The settings on record: Homo sapiens.
The subject of another assay is TT. The experiment in a line: cells. The following applies: Homo sapiens.
For the next assay, the system named is Caov-4. The assay can be described thus: cells. The settings on record: Homo sapiens.
Another assay relates to EFE-184. The experiment in a line: cells. The settings on record: Homo sapiens.
A further assay relates to NCI-H838. The experiment in a line: cells. The settings on record: Homo sapiens.
A further assay relates to MDA-MB-468. The assay can be described thus: cells. The following applies: Homo sapiens.
For a further assay, the system named is NCI-H1618. The experiment in a line: cells. The settings on record: Homo sapiens.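 Also: growth inhibition of human NCI-H1618 cells, measured by a cell viability assay.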
Another assay deals with CP67-MEL. The experiment in a line: SANGER: Inhibition of human CP67-MEL cell growth in a cell viability assay.
The test system of another assay is KP-N-RT-BM-1. The experiment in a line: SANGER: Inhibition of human KP-N-RT-BM-1 cell growth in a cell viability assay.

Description for A549: SANGER: Inhibition of human A549 cell growth in a cell viability assay.
Description for BALL-1: SANGER: Inhibition of human BALL-1 cell growth in a cell viability assay.
Description for CCF-STTG1: SANGER: Inhibition of human CCF-STTG1 cell growth in a cell viability assay.
Description for CFPAC-1: SANGER: Inhibition of human CFPAC-1 cell growth in a cell viability assay.
Description for COLO 205: SANGER: Inhibition of human COLO-205 cell growth in a cell viability assay.
Description for Caov-3 cell line: SANGER: Inhibition of human Caov-3 cell growth in a cell viability assay.
Description for Caov-4: SANGER: Inhibition of human Caov-4 cell growth in a cell viability assay.
Description for D-423MG: SANGER: Inhibition of human D-423MG cell growth in a cell viability assay.
Description for DV-90: SANGER: Inhibition of human DV-90 cell growth in a cell viability assay.
Description for ECC12: SANGER: Inhibition of human ECC12 cell growth in a cell viability assay.
Description for EFE-184: SANGER: Inhibition of human EFE-184 cell growth in a cell viability assay.
Description for EPLC-272H: SANGER: Inhibition of human EPLC-272H cell growth in a cell viability assay.
Description for KNS-62: SANGER: Inhibition of human KNS-62 cell growth in a cell viability assay.
Description for MDA-MB-468: SANGER: Inhibition of human MDA-MB-468 cell growth in a cell viability assay.
Description for MES-SA: SANGER: Inhibition of human MES-SA cell growth in a cell viability assay.
Description for NBsusSR: SANGER: Inhibition of human NBsusSR cell growth in a cell viability assay.
Description for NCI-H1048: SANGER: Inhibition of human NCI-H1048 cell growth in a cell viability assay.
Description for NCI-H1618: SANGER: Inhibition of human NCI-H1618 cell growth in a cell viability assay.
Description for NCI-H1666: SANGER: Inhibition of human NCI-H1666 cell growth in a cell viability assay.
Description for NCI-H1975: SANGER: Inhibition of human NCI-H1975 cell growth in a cell viability assay.
Description for NCI-H2029: SANGER: Inhibition of human NCI-H2029 cell growth in a cell viability assay.
Description for NCI-H2291: SANGER: Inhibition of human NCI-H2291 cell growth in a cell viability assay.
Description for NCI-H838: SANGER: Inhibition of human NCI-H838 cell growth in a cell viability assay.
Description for RH-18: SANGER: Inhibition of human RH-18 cell growth in a cell viability assay.
Description for SK-CO-1: SANGER: Inhibition of human SK-CO-1 cell growth in a cell viability assay.
Description for SNG-M: SANGER: Inhibition of human SNG-M cell growth in a cell viability assay.
Description for SNU-475: SANGER: Inhibition of human SNU-475 cell growth in a cell viability assay.
Description for SW 1116: SANGER: Inhibition of human SW1116 cell growth in a cell viability assay.
Description for YH-13: SANGER: Inhibition of human YH-13 cell growth in a cell viability assay.
Description for ZR-75-30: SANGER: Inhibition of human ZR-75-30 cell growth in a cell viability assay.

For orientation: IC50 means the concentration that inhibits the measured activity by half. A high value points to weaker potency. In the case of `Nc1ccccc1NC(=O)c1ccc(CNC(=O)OCc2cccnc2)cc1` [ENTINOSTAT], the IC50 was 169 nM in the assay with CRO-AP2, 701 nM in the assay on ECC12, more than 5000 nM in the assay with NCI-H128 and 1360 nM with NCI-H2107.

`CN(NC(=O)CC(=O)NN(C)C(=S)c1ccccc1)C(=S)c1ccccc1` [ELESCLOMOL]: the IC50 is more than 200 nM in the assay on NCI-H2291; 47.9 nM in the assay with ZR-75-30; more than 200 nM with CFPAC-1; 18.4 nM with NCI-H1048; more than 200 nM with SW 1116; 29.1 nM in the assay with EPLC-272H. Further, the IC50 in the assay with KNS-62 is 9.62 nM; in the assay with D-566MG, 15.2 nM; in the assay on D-423MG, 12 nM; with NBsusSR it was 3.13 nM; with NCI-H1666, more than 200 nM; in the assay on A549, 19.6 nM. Further, the IC50 was more than 200 nM with BALL-1; more than 200 nM in the assay on NCI-H2029; 24.1 nM in the assay on YH-13; 74.2 nM with RH-18; more than 200 nM with NCI-H1975.

As for `COC(=O)[C@H](CCSC)NC(=O)c1ccc(NC[C@@H](N)CS)cc1-c1ccccc1`, the IC50 in the assay on Caov-3 cell line, with MES-SA, in the assay with MFE-296, in the assay on SK-CO-1, with SNU-475 and with CCF-STTG1 was more than 1020 nM each time. The IC50 with ECC12, in the assay with SNG-M, in the assay with EW-7, in the assay on DV-90, in the assay with COLO 205 and in the assay with TT was more than 1020 nM in each case. The IC50 in the assay on Caov-4, with EFE-184, in the assay with NCI-H838, with MDA-MB-468 and in the assay with NCI-H1618 was more than 1020 nM throughout.

Regarding `Cc1ccc(C(=O)Nc2ccc(CN3CCN(C)CC3)c(C(F)(F)F)c2)cc1C#Cc1cnc2cccnn12` [PONATINIB], the IC50 with Caov-3 cell line was more than 512 nM; with MES-SA, 242 nM; with MFE-296, 118 nM; in the assay on SK-CO-1, more than 512 nM; with SNU-475, more than 512 nM; in the assay with CCF-STTG1, 225 nM. Also, the IC50 with ECC12, with SNG-M, in the assay with EW-7, with DV-90, with COLO 205 and in the assay on TT was more than 512 nM in each case. Also, the IC50 with Caov-4, with EFE-184, in the assay on NCI-H838, in the assay on MDA-MB-468 and in the assay on NCI-H1618 was more than 512 nM throughout.

With `NC(=O)c1ccc(N(C(N)=O)c2c(F)cccc2F)nc1-c1ccc(F)cc1F` [VX-702], the IC50 with NCI-H2291, with ZR-75-30, with CFPAC-1, in the assay on NCI-H1048, with SW 1116 and with EPLC-272H was more than 2000 nM throughout. Besides, the IC50 in the assay with KNS-62, in the assay on D-566MG, with D-423MG, in the assay with NBsusSR, in the assay with NCI-H1666 and in the assay on A549 was more than 2000 nM in each case. In addition, the IC50 in the assay on BALL-1, with NCI-H2029, in the assay on YH-13, in the assay on RH-18 and with NCI-H1975 was more than 2000 nM in each case.

Regarding `O=S(=O)(O)c1ccc2cc(/N=N/c3cc(S(=O)(=O)O)c4cccnc4c3O)ccc2c1`, the IC50 with Caov-3 cell line, in the assay on MES-SA, with MFE-296, with SK-CO-1, in the assay on SNU-475 and in the assay on CCF-STTG1 was more than 16000 nM throughout. The IC50 in the assay on ECC12, with SNG-M, in the assay on EW-7, with DV-90, in the assay with COLO 205 and in the assay with TT was more than 16000 nM in each case. Moreover, the IC50 in the assay with Caov-4, in the assay on EFE-184, in the assay with NCI-H838, with MDA-MB-468 and with NCI-H1618 was more than 16000 nM in each case.

For the compound `CC1=C(/C=C/C(C)=C/C=C/C(C)=C/C(=O)O)C(C)(C)CCC1` [TRETINOIN], the IC50 in the assay on NCI-H2291, in the assay with ZR-75-30, with CFPAC-1, in the assay with NCI-H1048, in the assay on SW 1116 and in the assay with EPLC-272H was more than 10000 nM each time. Further, the IC50 in the assay on KNS-62 is more than 10000 nM; with D-566MG, more than 10000 nM; in the assay on D-423MG, more than 10000 nM; in the assay on NBsusSR it was 1450 nM; with NCI-H1666 it was more than 10000 nM; in the assay on A549, more than 10000 nM. Besides, the IC50 with BALL-1, in the assay on NCI-H2029, with YH-13, in the assay with RH-18 and with NCI-H1975 was more than 10000 nM in each case.

On to `Cc1ccc(NC(=O)c2ccc(CN3CCN(C)CC3)cc2)cc1Nc1nccc(-c2cccnc2)n1` [IMATINIB], for which the IC50 in the assay with CRO-AP2, in the assay with CP67-MEL, in the assay with NCI-H128, with NCI-H2107 and in the assay on KP-N-RT-BM-1 was more than 2000 nM in each case.
